Results published in doi:10.1101/2024.08.19.608619, “Discovery of potent SARS-CoV-2 nsp3 macrodomain inhibitors uncovers lack of translation to cellular antiviral response” (bioRxiv, 2024).
Where two headings read alike, the source gives them in different places.

Key:
SARS-CoV-2 nsp3-mac1 [1] = molecular target: T1, SARS-CoV-2 nsp3-mac1 (Severe acute respiratory syndrome coronavirus 2, UniProt P0DTD1); assay: biochemical; format: biochemical; conditions: SARS-CoV-2 nsp3 macrodomain TR-FRET single point
SARS-CoV-2 nsp3-mac1 [2] = molecular target: T1, SARS-CoV-2 nsp3-mac1; assay: biochemical; parameters: SARS-CoV-2 nsp3 macrodomain TR-FRET single point, per cent inhibition, n=2
[3] = read-out: perc_inhibition_mean, batch_name=ASAP-0000451-001
[4] = read-out: perc_inhibition_mean, batch_name=ASAP-0000452-001
[5] = read-out: perc_inhibition_mean, batch_name=ASAP-0000454-001
[6] = read-out: perc_inhibition_mean, batch_name=ASAP-0000455-001
[7] = read-out: perc_inhibition_mean, batch_name=ASAP-0000456-001
[8] = read-out: perc_inhibition_mean, batch_name=ASAP-0000457-001
[9] = read-out: perc_inhibition_mean, batch_name=ASAP-0000458-001
[10] = read-out: perc_inhibition_mean, batch_name=ASAP-0000459-001
[11] = read-out: perc_inhibition_mean, batch_name=ASAP-0000460-001
[12] = read-out: perc_inhibition_mean, batch_name=ASAP-0000461-001
[13] = read-out: perc_inhibition_mean, batch_name=ASAP-0000462-001
[14] = read-out: perc_inhibition_mean, batch_name=ASAP-0000463-001
[15] = read-out: perc_inhibition_mean, batch_name=ASAP-0000464-001
[16] = read-out: perc_inhibition_mean, batch_name=ASAP-0000465-001
[17] = read-out: perc_inhibition_mean, batch_name=ASAP-0000466-001
[18] = read-out: perc_inhibition_mean, batch_name=ASAP-0000467-001
[19] = read-out: perc_inhibition_mean, batch_name=ASAP-0000468-001
[20] = read-out: perc_inhibition_mean, batch_name=ASAP-0000469-001

| SMILES | perc_inhibition_mean (SARS-CoV-2 nsp3-mac1 [1]; concentration 49.75 uM) [%] | perc_inhibition_mean (SARS-CoV-2 nsp3-mac1 [1]; concentration 99.5 uM) [%] | also measured |
| --- | --- | --- | --- |
| O=C(O)c1ccc(C(=O)N2CCC(c3ccn4ncc(C(=O)N5CCCCC5)c4c3)CC2)o1 [ASAP-0000451] | 40.495 | 58.121 | inhibition at 49.75 µM (SARS-CoV-2 nsp3-mac1 [2]; [3]): 40.5%; inhibition at 99.5 µM (SARS-CoV-2 nsp3-mac1 [2]; [3]): 58.1% |
| CC(C)[C@@H](Nc1ncnc2[nH]ccc12)C(F)F [ASAP-0000452] | 81.614 | 91.659 | inhibition at 49.75 µM (SARS-CoV-2 nsp3-mac1 [2]; [4]): 81.6%; inhibition at 99.5 µM (SARS-CoV-2 nsp3-mac1 [2]; [4]): 91.7% |
| CC(C)[C@@H]1[C@H](O)CCN1c1ncnc2[nH]ccc12 [ASAP-0000454] | 17.696 | 32.152 | inhibition at 49.75 µM (SARS-CoV-2 nsp3-mac1 [2]; [5]): 17.7%; inhibition at 99.5 µM (SARS-CoV-2 nsp3-mac1 [2]; [5]): 32.2% |
| CC(C)[C@@H](Nc1ncnc2[nH]ccc12)c1cccs1 [ASAP-0000455] | 84.659 | 89.893 | inhibition at 49.75 µM (SARS-CoV-2 nsp3-mac1 [2]; [6]): 84.7%; inhibition at 99.5 µM (SARS-CoV-2 nsp3-mac1 [2]; [6]): 89.9% |
| O=C(O)c1cnc(C(=O)N2CCC(c3ccn4ncc(C(=O)N5CCCCC5)c4c3)CC2)cn1 [ASAP-0000456] | 27.543 | 46.435 | inhibition at 49.75 µM (SARS-CoV-2 nsp3-mac1 [2]; [7]): 27.5%; inhibition at 99.5 µM (SARS-CoV-2 nsp3-mac1 [2]; [7]): 46.4% |
| Cn1nc(C(=O)O)cc1C(=O)N1CCC(c2ccn3ncc(C(=O)N4CCCCC4)c3c2)CC1 [ASAP-0000457] | 34.252 | 52.667 | inhibition at 49.75 µM (SARS-CoV-2 nsp3-mac1 [2]; [8]): 34.3%; inhibition at 99.5 µM (SARS-CoV-2 nsp3-mac1 [2]; [8]): 52.7% |
| O=C(O)c1ccc2c(c1)ncn2-c1ccc(CNC(=O)c2ncnc3[nH]ccc23)cc1 [ASAP-0000458] | -33.429 | -4.649 | inhibition at 49.75 µM (SARS-CoV-2 nsp3-mac1 [2]; [9]): -33.4%; inhibition at 99.5 µM (SARS-CoV-2 nsp3-mac1 [2]; [9]): -4.65% |
| O=C(C[C@@H](NC(=O)c1ncnc2[nH]ccc12)C1CC1)NCc1ccc(C(=O)O)cc1 [ASAP-0000459] | -9.862 | 0.768 | inhibition at 49.75 µM (SARS-CoV-2 nsp3-mac1 [2]; [10]): -9.86%; inhibition at 99.5 µM (SARS-CoV-2 nsp3-mac1 [2]; [10]): 0.768% |
| C[C@@H](NC(=O)c1ncnc2[nH]ccc12)c1ncc(C(=O)O)c(=O)[nH]1 [ASAP-0000460] | 4.872 | 10.734 | inhibition at 49.75 µM (SARS-CoV-2 nsp3-mac1 [2]; [11]): 4.87%; inhibition at 99.5 µM (SARS-CoV-2 nsp3-mac1 [2]; [11]): 10.7% |
| O=C(N[C@@H](C(=O)O)[C@@H](O)Cc1ccccc1)c1ncnc2[nH]ccc12 [ASAP-0000461] | 3.789 | 12.267 | inhibition at 49.75 µM (SARS-CoV-2 nsp3-mac1 [2]; [12]): 3.79%; inhibition at 99.5 µM (SARS-CoV-2 nsp3-mac1 [2]; [12]): 12.3% |
| CC(C)[C@@H](Nc1ncnc2[nH]ccc12)C(N)=O [ASAP-0000462] | 64.403 | 77.698 | inhibition at 49.75 µM (SARS-CoV-2 nsp3-mac1 [2]; [13]): 64.4%; inhibition at 99.5 µM (SARS-CoV-2 nsp3-mac1 [2]; [13]): 77.7% |
| Cn1cc([C@@H](Nc2ncnc3[nH]ccc23)C2CCC2)cn1 [ASAP-0000463] | 78.069 | 91.032 | inhibition at 49.75 µM (SARS-CoV-2 nsp3-mac1 [2]; [14]): 78.1%; inhibition at 99.5 µM (SARS-CoV-2 nsp3-mac1 [2]; [14]): 91% |
| C[C@@H](Cc1ccc(Cl)s1)Nc1ccc([C@@H](CC(=O)O)NC(=O)c2c[nH]c3ncncc23)cc1 [ASAP-0000464] | -1.543 | 1.952 | inhibition at 49.75 µM (SARS-CoV-2 nsp3-mac1 [2]; [15]): -1.54%; inhibition at 99.5 µM (SARS-CoV-2 nsp3-mac1 [2]; [15]): 1.95% |
| CC(C)[C@H]1CN(c2ncnc3[nH]ccc23)[C@H]1C(C)C [ASAP-0000465] | 0.348 | -2.201 | inhibition at 49.75 µM (SARS-CoV-2 nsp3-mac1 [2]; [16]): 0.348%; inhibition at 99.5 µM (SARS-CoV-2 nsp3-mac1 [2]; [16]): -2.2% |
| CC(C)[C@@H](CCN(C)C(=O)c1nn2cccnc2c1Cl)Nc1ncnc2[nH]ccc12 [ASAP-0000466] | 0.844 | 1.645 | inhibition at 49.75 µM (SARS-CoV-2 nsp3-mac1 [2]; [17]): 0.844%; inhibition at 99.5 µM (SARS-CoV-2 nsp3-mac1 [2]; [17]): 1.65% |
| COc1ccccc1C[C@@H](Nc1ncnc2[nH]ccc12)C(C)C [ASAP-0000467] | 31.716 | 48.499 | inhibition at 49.75 µM (SARS-CoV-2 nsp3-mac1 [2]; [18]): 31.7%; inhibition at 99.5 µM (SARS-CoV-2 nsp3-mac1 [2]; [18]): 48.5% |
| Cc1nn(-c2ccccc2)c(C)c1[C@H]1COCCN1c1ncnc2[nH]ccc12 [ASAP-0000468] | -0.042 | -4.216 | inhibition at 49.75 µM (SARS-CoV-2 nsp3-mac1 [2]; [19]): -0.042%; inhibition at 99.5 µM (SARS-CoV-2 nsp3-mac1 [2]; [19]): -4.22% |
| O=C(N[C@H](Cn1cnc2cc(F)c(F)cc21)C(=O)O)c1ncnc2[nH]ccc12 [ASAP-0000469] | -2.035 | 8.395 | inhibition at 49.75 µM (SARS-CoV-2 nsp3-mac1 [2]; [20]): -2.04%; inhibition at 99.5 µM (SARS-CoV-2 nsp3-mac1 [2]; [20]): 8.39% |
